According to ChEMBL document CHEMBL1201862, “PubChem BioAssay data set” (2004):
The source made the active and inactive calls.

Experiments:
[1] = viability of PTEN-deleted HCT116 cells – cell-based, HCT116 PTEN knockout, dose response (AID 1047); format: functional;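 further: HCT116 colon tumor cells with PTEN knocked out; cells exposed to compound for 60 hours before readout; potency for loss of cell viability measured by luminescence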
[2] = viability of HCT116 lacking mutant beta-catenin – cell-based, human colon tumor, dose response (AID 1045); format: functional;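 further: HCT116 colon tumor cells with beta catenin knocked out; cells exposed to compound for 60 hours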
[3] = viability loss in THP-1 monocytes – THP-1 cells, cytotoxicity control for Vif-APOBEC3G degradation inhibitor project, dose response (AID 1117359); format: functional; conditions: THP-1
[4] = biological target: Voltage-dependent T-type calcium channel subunit alpha-1H (Homo sapiens, UniProt O95180); format: functional;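 further: channel activity triggered by adding a high calcium stimulation buffer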
Voltage-dependent T-type calcium channel subunit alpha-1H, sequence (O95180 whole entry): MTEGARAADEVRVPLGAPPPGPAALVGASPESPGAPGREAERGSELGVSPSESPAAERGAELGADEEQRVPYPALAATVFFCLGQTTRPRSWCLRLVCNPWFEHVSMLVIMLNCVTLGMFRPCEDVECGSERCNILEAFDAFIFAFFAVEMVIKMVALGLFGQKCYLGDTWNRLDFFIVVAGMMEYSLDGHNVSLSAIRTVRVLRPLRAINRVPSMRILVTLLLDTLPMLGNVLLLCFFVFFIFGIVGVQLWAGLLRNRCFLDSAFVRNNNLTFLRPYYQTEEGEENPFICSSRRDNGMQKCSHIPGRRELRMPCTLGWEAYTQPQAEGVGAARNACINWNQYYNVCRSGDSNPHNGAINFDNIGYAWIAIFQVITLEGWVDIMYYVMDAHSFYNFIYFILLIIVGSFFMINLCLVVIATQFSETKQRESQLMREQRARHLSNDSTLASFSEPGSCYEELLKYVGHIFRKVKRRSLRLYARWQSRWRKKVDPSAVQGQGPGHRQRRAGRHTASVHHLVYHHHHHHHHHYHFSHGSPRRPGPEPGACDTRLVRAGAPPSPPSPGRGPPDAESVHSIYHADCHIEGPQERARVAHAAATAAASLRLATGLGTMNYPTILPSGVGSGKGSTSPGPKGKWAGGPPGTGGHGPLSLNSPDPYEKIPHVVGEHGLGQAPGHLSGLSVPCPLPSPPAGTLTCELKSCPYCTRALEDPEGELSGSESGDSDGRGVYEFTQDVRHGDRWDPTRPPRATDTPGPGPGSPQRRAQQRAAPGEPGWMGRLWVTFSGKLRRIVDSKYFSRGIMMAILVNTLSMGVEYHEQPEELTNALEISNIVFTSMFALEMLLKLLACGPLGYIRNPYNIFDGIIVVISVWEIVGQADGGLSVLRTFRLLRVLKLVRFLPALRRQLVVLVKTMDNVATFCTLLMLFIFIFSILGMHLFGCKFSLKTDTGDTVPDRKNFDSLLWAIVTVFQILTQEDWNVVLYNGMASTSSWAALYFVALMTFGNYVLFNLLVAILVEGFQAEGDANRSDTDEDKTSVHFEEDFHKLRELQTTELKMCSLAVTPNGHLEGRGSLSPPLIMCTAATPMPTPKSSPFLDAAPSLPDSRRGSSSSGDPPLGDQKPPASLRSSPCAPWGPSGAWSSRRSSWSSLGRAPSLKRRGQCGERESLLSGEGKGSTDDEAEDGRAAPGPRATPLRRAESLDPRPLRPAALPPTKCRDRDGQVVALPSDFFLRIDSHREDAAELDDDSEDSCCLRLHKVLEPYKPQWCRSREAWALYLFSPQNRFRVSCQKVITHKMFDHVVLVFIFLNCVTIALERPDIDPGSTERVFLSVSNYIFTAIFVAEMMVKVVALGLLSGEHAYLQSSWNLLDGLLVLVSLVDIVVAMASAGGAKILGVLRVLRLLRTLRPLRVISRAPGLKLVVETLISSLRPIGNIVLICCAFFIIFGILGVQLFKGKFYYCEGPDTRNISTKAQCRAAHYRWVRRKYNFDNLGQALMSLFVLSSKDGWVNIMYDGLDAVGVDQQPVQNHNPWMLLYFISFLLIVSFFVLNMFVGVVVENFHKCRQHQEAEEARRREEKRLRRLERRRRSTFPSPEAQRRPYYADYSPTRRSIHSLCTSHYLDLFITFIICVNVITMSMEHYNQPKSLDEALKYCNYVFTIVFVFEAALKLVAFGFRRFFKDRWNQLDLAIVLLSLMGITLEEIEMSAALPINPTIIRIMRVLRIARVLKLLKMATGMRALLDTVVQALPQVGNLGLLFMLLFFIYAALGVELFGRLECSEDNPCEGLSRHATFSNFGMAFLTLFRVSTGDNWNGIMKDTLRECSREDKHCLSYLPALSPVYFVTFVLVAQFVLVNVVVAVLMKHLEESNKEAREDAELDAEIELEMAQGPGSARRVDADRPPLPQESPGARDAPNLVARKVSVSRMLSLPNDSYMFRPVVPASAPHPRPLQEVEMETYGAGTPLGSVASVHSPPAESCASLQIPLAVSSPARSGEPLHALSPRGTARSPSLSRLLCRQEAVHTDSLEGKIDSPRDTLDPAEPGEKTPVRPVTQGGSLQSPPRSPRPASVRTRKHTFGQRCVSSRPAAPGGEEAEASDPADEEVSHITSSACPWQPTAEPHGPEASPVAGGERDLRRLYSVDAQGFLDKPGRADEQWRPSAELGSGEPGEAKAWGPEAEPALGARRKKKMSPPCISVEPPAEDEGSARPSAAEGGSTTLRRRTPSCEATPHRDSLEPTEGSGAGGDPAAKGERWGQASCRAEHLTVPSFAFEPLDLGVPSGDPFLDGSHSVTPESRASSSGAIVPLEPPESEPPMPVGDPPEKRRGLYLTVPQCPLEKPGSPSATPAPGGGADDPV

[5] = biological target: T1, Ubiquitin-conjugating enzyme E2 N (Homo sapiens, UniProt P61088); format: functional
T1 sequence (P61088 whole entry): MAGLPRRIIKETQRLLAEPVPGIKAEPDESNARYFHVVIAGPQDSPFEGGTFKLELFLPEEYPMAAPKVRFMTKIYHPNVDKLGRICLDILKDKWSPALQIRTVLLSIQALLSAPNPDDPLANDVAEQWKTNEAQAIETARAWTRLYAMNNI

[6] = NIH3T3 cell viability loss – ATP luminescence, mouse fibroblasts, counter-screen, dose response (AID 2010); format: functional, cell-based;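 further: cells exposed to compound for about 90 hours before reading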
Bcl-2-related protein A1 = biological target: T2, Bcl-2-related protein A1 (Mus musculus, UniProt Q07440); format: functional;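 further: confirmatory dose–response counterscreen on Bfl-1, used to check hits from a UBC13 polyubiquitin inhibitor campaign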
T2 sequence (Q07440 whole entry): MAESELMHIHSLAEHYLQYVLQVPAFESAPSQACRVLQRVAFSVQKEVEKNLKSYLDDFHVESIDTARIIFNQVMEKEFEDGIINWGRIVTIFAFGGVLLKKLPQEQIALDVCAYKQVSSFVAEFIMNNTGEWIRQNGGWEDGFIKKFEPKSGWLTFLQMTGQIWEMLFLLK

[7] = biological target: T1, Ubiquitin-conjugating enzyme E2 N; format: functional; remark: listed apart in the source
[8] = Trypanosoma cruzi growth suppression in host cells – NIH3T3 host cells, beta-gal luminescence, confirmation (AID 2044); format: functional, cell-based;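 further: intracellular parasites grown in NIH/3T3 mouse fibroblasts as host cells; luminescent beta-galactosidase reporter signal from transgenic T. cruzi replicating inside host cells; inhibitors lower the luminescence signal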
Prothrombin = Prothrombin (Homo sapiens, UniProt P00734); assay: Thrombin 1536 HTS Dose Response Confirmation. [Related pubchem assays: 1046 (Thrombin 1536 HTS; hits were confirmed in this assay)]; format: functional
Streptococcus = assay: GAS UMAA2166 growth inhibition – luminescence, BacTiterGlo, counter-screen for streptokinase expression inhibitor project, dose response (AID 1915); format: functional, organism-based;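 further: potency for reduction of bacterial viability or growth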
[9] = Luminescence Cell-Based Dose Retest to Confirm Inhibitors of Cancer Stem Cells. [Related pubchem assays (depositor defined):AID2717, AID2721]; format: functional; conditions: Homo sapiens
[10] = tested on: Streptococcus sp. 'group A'; assay: Streptococcus pyogenes SK(-)GAS viability under kanamycin – luminescence, BacTiterGlo, confirmation, counter-screen for streptokinase expression inhibitor project, dose response (AID 1900); format: functional, organism-based
INS1 = assay: INS-1E survival protection against cytokine death – cell-based, luminescence, retest, dose response (AID 449756); format: functional; conditions: Rattus norvegicus;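 further: cell death triggered by IL-1 beta plus TNF-alpha plus IFN-gamma mixture; protective hits raise ATP signal compared with cytokine alone wells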
[11] = biological target: T3, Replicative DNA helicase DnaB (Mycobacterium tuberculosis, UniProt P9WMR3); assay: DnaB intein splicing inhibitors, dose response, biochemical, cell-free fluorescence (AID 449749); format: functional
T3 sequence (P9WMR3 whole entry): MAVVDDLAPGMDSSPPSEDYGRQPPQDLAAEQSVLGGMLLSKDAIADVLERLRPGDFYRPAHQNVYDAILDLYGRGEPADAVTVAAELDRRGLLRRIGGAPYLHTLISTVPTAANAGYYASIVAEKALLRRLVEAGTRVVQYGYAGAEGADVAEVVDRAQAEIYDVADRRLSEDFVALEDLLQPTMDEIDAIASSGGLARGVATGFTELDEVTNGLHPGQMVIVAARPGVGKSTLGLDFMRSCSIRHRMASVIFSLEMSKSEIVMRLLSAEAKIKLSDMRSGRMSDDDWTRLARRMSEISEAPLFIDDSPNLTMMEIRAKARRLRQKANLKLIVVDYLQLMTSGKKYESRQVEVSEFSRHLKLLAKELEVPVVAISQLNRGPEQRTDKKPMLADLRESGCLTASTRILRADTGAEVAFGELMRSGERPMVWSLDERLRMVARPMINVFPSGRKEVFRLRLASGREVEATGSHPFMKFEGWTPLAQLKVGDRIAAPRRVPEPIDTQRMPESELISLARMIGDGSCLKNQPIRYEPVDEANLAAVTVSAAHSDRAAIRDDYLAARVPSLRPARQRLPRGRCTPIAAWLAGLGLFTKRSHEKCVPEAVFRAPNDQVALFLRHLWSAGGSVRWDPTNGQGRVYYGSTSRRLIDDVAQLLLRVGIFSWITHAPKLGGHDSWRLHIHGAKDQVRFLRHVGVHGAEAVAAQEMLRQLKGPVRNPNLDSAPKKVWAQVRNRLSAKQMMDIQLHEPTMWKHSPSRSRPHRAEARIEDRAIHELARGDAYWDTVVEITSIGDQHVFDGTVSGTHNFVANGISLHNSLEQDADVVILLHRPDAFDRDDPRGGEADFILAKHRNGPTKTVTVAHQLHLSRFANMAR

Protein RecA = biological target: T4, Protein RecA (Mycobacterium tuberculosis, UniProt P9WHJ3); assay: Fluorescence Cell-Free Homogeneous Dose Retest to Identify Inhibitors of RecA-Intein Splicing Activity. [Related pubchem assays (depositor defined):AID2097, AID2223, AID489010, AID492950]; format: functional
T4 sequence (P9WHJ3 whole entry): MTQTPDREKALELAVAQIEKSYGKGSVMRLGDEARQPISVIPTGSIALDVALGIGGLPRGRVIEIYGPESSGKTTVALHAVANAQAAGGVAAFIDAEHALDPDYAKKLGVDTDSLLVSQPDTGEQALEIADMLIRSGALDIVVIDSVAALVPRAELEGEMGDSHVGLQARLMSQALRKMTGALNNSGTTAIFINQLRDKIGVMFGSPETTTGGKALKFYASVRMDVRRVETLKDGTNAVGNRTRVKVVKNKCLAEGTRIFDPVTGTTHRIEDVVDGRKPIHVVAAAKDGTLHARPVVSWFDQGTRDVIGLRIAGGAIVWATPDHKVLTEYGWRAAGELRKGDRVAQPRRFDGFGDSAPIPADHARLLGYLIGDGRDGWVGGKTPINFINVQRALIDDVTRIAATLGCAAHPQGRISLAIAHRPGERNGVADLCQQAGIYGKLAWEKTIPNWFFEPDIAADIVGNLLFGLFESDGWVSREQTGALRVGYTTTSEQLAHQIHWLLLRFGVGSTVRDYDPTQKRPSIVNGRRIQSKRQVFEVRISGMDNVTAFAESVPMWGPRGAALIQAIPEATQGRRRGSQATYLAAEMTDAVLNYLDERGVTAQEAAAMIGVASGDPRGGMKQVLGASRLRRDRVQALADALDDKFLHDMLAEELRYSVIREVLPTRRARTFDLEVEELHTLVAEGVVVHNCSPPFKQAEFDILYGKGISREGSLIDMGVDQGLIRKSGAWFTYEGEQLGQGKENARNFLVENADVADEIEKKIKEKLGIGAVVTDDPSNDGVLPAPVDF

Cytochrome P450 1A2 = biological target: T5, Cytochrome P450 1A2 (Homo sapiens, UniProt P05177);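 further: PubChem cytochrome P450 panel assay, CYP1A2 panel member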
T5 sequence (P05177 whole entry): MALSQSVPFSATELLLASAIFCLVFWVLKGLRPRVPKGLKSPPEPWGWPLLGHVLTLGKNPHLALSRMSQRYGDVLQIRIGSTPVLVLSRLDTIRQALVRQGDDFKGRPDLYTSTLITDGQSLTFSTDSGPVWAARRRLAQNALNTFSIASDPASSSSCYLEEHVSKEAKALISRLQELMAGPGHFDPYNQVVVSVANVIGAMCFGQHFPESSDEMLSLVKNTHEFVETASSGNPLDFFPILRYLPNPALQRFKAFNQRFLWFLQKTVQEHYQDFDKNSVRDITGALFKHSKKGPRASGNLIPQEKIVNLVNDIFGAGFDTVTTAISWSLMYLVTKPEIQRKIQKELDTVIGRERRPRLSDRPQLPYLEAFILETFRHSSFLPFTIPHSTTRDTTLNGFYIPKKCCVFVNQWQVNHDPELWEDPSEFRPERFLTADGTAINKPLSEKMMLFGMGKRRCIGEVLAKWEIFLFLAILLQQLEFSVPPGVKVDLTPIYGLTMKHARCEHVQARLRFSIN

Cytochrome P450 2D6 = Cytochrome P450 2D6 (Homo sapiens, UniProt P10635);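 further: CYP2D6 member of a cytochrome P450 panel assay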
Cytochrome P450 2D6, sequence (P10635 whole entry): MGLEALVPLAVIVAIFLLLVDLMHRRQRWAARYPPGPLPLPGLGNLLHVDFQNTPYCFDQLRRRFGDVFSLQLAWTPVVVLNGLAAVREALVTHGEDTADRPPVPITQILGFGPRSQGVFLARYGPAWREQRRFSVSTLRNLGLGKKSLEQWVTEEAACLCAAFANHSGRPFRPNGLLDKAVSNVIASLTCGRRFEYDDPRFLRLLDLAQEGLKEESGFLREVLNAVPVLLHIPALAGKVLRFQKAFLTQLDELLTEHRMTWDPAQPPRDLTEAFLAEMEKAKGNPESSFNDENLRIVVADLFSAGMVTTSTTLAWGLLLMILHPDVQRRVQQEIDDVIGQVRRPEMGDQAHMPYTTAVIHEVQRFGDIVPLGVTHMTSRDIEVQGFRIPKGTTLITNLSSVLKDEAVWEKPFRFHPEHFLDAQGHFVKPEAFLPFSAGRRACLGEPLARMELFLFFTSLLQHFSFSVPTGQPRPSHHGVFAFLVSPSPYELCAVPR

Galanin receptor type 3 = biological target: T6, Galanin receptor type 3 (Homo sapiens, UniProt O60755); assay: Fluorescence-based cell-based primary high throughput dose response assay to identify antagonists of the Galanin Receptor 3 (GalR3).; format: functional
T6 sequence (O60755 whole entry): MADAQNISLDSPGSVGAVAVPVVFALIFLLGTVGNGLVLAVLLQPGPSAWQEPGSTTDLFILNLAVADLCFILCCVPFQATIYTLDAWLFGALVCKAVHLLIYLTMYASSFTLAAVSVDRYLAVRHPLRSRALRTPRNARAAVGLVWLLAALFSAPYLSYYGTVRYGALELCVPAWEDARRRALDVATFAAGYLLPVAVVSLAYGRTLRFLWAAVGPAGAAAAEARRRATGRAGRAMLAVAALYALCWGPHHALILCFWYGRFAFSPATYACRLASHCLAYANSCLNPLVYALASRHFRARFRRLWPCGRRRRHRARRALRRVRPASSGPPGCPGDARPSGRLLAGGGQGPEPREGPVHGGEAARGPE

cells = format: functional, cell-based; conditions: HEK-CNG
[12] = HEK-293T viability loss after treatment – luminescence, T-cell screen hits, cytotoxicity control for TCR NF-kB inhibitor project, dose response (AID 489026); format: functional, cell-based;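 further: cells exposed to compound about 14 hours before the viability readout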

For COc1ccc(-c2nc(C#N)c(NCc3ccccc3Cl)o2)cc1OC, the EC50 [1] was 25.1 µM (active), the EC50 [2] was 29.1 µM (active) and the CC50 [3] was > 40 µM (active).
In the case of CCOC(=O)C(C)Sc1cc(CS(=O)(=O)c2ccccc2)nc(-c2ccccc2)n1 (stereo not given), the EC50 [4] is reported as 8.17 µM (active).
In the case of CC(C)N=C(S)N=Nc1c(O)[nH]c2ccc(C(C)C)cc12, the IC50 [5] is reported as 3.56 µM (active), the EC50 [6] is reported as 11 µM (active) and the IC50 (Bcl-2-related protein A1) is reported as > 20 µM (inactive). The IC50 [7] was 19.2 µM (active) and the EC50 [8] was 2.06 µM (active).
For COc1ccccc1NC(=O)c1sc2ncn(Cc3ccc(C)cc3)c(=O)c2c1C, the IC50 (Prothrombin) was > 50 µM (not active).
For Clc1ccc2c(N/N=C/c3cccc(Br)c3)ccnc2c1, the EC50 (Streptococcus) was 4.4 µM (active), the AC50 [9] was 5.63 µM (active) and the EC50 [1] was 4.59 µM (active). For the same compound, the EC50 [2] was 4.89 µM (active), the EC50 [10] was 3.24 µM (active) and the AC50 (INS1) was 7.17 µM (active).
In the case of CCCOc1ccc(C(=O)Nn2c(C)nc3ccccc3c2=O)cc1, the IC50 [5] is reported as 1.32 µM (active), the IC50 (Bcl-2-related protein A1) is reported as > 20 µM (inactive) and the IC50 [7] is reported as 1.54 µM (active).
For Cn1c(CNc2cccc(Cl)c2)nnc1SCC(=O)OC1CCCCC1, the EC50 [4] was 2.53 µM (active).
For COc1ccccc1NC(=O)CSc1nnc(-c2ccoc2C)n1CCc1ccccc1, the IC50 [5] was 8.82 µM (active), the IC50 (Bcl-2-related protein A1) was > 20 µM (inactive) and the IC50 [7] was 9.91 µM (active).
For O=C(Nc1nc(-c2cccs2)cs1)c1ccc(S(=O)(=O)N2CCCCC2)cc1, the EC50 [4] was 3.4 µM (active).
In the case of CC(=O)Oc1ccc2ccccc2c1C(NC(=O)Cc1ccccc1)c1ccc(Cl)cc1 (stereo not given), the AC50 [9] is reported as 3.12 µM (active), the EC50 [1] is reported as 18.6 µM (active) and the AC50 [11] is reported as 3.27 µM (active). The EC50 [2] was 21.1 µM (active), the EC50 (Protein RecA) was 31.6 µM (active) and the AC50 (Cytochrome P450 1A2) was 6.31 µM (inconclusive). For the same compound, the AC50 (Cytochrome P450 2D6) was 11.2 µM (inconclusive).
In the case of COC(=O)c1ccc(C(=O)NC(=S)Nc2ccc3nc(SC)sc3c2)cc1, the EC50 [1] is reported as 5.26 µM (active) and the EC50 [2] is reported as 5.03 µM (active).
In the case of Cc1ccccc1NC(=O)c1ccc(CN2CCC(Cc3ccccc3)CC2)cc1, the EC50 [4] is reported as 0.134 µM (active).
With CCOC(=O)c1c(NC(=O)COc2ccccc2C#N)sc2c1CC(C)(C)NC2(C)C the IC50 [5] was 4.91 µM (active), the IC50 (Bcl-2-related protein A1) was > 20 µM (inactive) and the IC50 [7] was 5.94 µM (active).
For O=C(O)C1CCN(c2ccc(Cl)nn2)CC1, the IC50 (Prothrombin) was > 50 µM (not active).
With Cc1ccc2[nH]c(SCCCCOc3ccccc3)nc2c1 the EC50 [4] was 2.25 µM (active).
With COc1ccc(-c2ccc(CCC(=O)O)n2-c2ccccc2O)cc1 the IC50 (Prothrombin) was 10.5 µM (active).
For Nc1nc2ccccc2n1C(=O)c1ccco1, the IC50 (Prothrombin) was > 50 µM (not active).
For CN(CCNC(=O)C1CCN(c2ncnc3c2nc2n3CCCCC2)CC1)Cc1ccccc1, the IC50 [5] was 2.98 µM (active), the IC50 (Bcl-2-related protein A1) was > 20 µM (inactive) and the IC50 [7] was 3.44 µM (active).
In the case of O=C(Nc1ccc(F)cc1F)c1ccc(-n2cncn2)nc1, the IC50 (Prothrombin) is reported as > 50 µM (not active).
In the case of Cc1ccc(Oc2nnc(-c3ccccc3)c3ccccc23)cc1, the EC50 [1] is reported as 75.7 µM (active) and the EC50 [2] is reported as 75.9 µM (active).
For CC(C)(C)c1ccc(C(=O)Nc2ccc(Oc3cccnc3)nc2)cc1, the IC50 (Galanin receptor type 3) was 1.33 µM (active), the EC50 (cells) was > 29.9 µM (inactive) and the IC50 [12] was 50.1 µM (inactive).
